{"source": "patent US20220089575A1", "about": "“FARNESOID X RECEPTOR AGONISTS AND USES THEREOF” (Metacrine, Inc., priority 2017, published 2022)"}
{"molecular_target": "T1, hFXR (Homo sapiens, UniProt Q96RI1)", "T1 construct": "expressed in transfected cells; host or cells: CV-1 cells", "T1 sequence (Q96RI1 1-486)": "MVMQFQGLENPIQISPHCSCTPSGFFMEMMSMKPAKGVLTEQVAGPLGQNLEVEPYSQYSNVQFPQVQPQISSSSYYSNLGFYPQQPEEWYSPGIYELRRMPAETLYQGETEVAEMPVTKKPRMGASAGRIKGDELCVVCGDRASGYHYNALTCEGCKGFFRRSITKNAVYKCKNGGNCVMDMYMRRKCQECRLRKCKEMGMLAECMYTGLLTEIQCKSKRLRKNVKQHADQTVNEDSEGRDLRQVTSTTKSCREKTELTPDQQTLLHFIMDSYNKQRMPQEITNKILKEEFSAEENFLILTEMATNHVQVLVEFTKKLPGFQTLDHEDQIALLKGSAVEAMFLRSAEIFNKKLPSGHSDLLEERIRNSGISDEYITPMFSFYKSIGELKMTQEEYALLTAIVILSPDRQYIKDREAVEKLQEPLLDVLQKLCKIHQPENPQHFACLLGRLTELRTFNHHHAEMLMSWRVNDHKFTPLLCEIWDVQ", "T1 sequence (P19793 1-462 partner)": "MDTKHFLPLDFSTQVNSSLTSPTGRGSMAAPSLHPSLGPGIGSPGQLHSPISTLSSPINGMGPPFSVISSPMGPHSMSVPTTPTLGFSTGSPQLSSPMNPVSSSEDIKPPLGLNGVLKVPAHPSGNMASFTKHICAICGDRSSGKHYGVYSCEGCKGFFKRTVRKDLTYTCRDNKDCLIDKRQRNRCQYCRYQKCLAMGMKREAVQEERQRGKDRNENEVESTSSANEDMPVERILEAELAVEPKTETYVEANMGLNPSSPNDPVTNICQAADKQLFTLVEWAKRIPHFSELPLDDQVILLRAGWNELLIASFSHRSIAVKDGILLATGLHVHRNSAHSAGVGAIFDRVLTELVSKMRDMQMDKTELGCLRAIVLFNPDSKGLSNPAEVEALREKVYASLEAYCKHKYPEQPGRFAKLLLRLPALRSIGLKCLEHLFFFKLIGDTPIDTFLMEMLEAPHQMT", "assay": "In Vitro FXR Assay (TK): TK-ECRE-luc reporter in transfected CV-1 cells", "assay_type": "cell-based", "settings": "18 hrs, luminescence, maximum efficacy of <25% of the Fexarmine control classified as '+'", "procedure,_shortened": "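CV-1 cells transiently co-transfected with hFXR, hRXR, TK-ECRE-luc and pCMX-YFP plasmids in charcoal-stripped serum medium. Serially diluted compounds added, cells incubated 18 h at 37° C, then lysed and luminescence read.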", "units": {"EC50": "nM"}}
{"smiles": "COc1ccc([C@H]2CC[C@H](CN(c3cccc(-c4cnn(C(C)C)c4)c3)C(=O)[C@H]3CC[C@H](OC(=O)NCCO)CC3)CC2)cc1C", "note": "[Compound 6.09, trans-4-((3-(1-Isopropyl-1H-pyrazol-4-yl)phenyl)((trans-4-(4-methoxy-3-methylphenyl)cyclohexyl)methyl)carbamoyl)cyclohexyl (2-hydroxyethyl) carbamate]", "EC50": "≤ 250"}
{"smiles": "COCCNC(=O)O[C@H]1CC[C@H](C(=O)N(C[C@H]2CC[C@H](c3ccc(OC)c(C)c3)CC2)c2cccc(-c3cnn(C4CC4)c3)c2)CC1", "note": "[Compound 6.10, trans-4-((3-(1-Cyclopropyl-1H-pyrazol-4-yl)phenyl)((trans-4-(4-methoxy-3-methylphenyl)cyclohexyl)methyl)carbamoyl)cyclohexyl (2-methoxyethyl) carbamate]", "EC50": "≤ 250"}
{"smiles": "COc1ccc([C@H]2CC[C@H](CN(c3cccc(-c4cnn(C5CC5)c4)c3)C(=O)[C@H]3CC[C@H](OC(=O)NC(CO)CO)CC3)CC2)cc1C", "note": "[Compound 6.11, trans-4-((3-(1-Cyclopropyl-1H-pyrazol-4-yl)phenyl)((trans-4-(4-methoxy-3-methylphenyl)cyclohexyl)methyl)carbamoyl)cyclohexyl (1,3-dihydroxypropan-2-yl)carbamate]", "EC50": "≤ 250"}
{"smiles": "COc1ccc([C@H]2CC[C@H](CN(c3cccc(-c4cnn(C5CC5)c4)c3)C(=O)[C@H]3CC[C@H](OC(=O)NC[C@H](O)CO)CC3)CC2)cc1C", "note": "[Compound 6.12, trans-4-((3-(1-Cyclopropyl-1H-pyrazol-4-yl)phenyl)((trans-4-(4-methoxy-3-methylphenyl)cyclohexyl)methyl)carbamoyl)cyclohexyl ((S)-2,3-dihydroxypropyl)carbamate]", "EC50": "≤ 250"}
{"smiles": "COc1ccc([C@H]2CC[C@H](CN(c3cccc(-c4cnn(C5CC5)c4)c3)C(=O)[C@H]3CC[C@H](OC(=O)NC[C@@H](O)CO)CC3)CC2)cc1C", "note": "[Compound 6.13, trans-4-((3-(1-Cyclopropyl-1H-pyrazol-4-yl)phenyl)((trans-4-(4-methoxy-3-methylphenyl)cyclohexyl)methyl)carbamoyl)cyclohexyl ((R)-2,3-dihydroxypropyl)carbamate]", "EC50": "≤ 250"}
{"smiles": "COc1ccc([C@H]2CC[C@H](CN(c3cccc(-c4cnn(C(C)C)c4)c3)C(=O)[C@H]3CC[C@H](OC(=O)NCCCO)CC3)CC2)cc1C", "note": "[Compound 6.14, trans-4-((3-(1-Isopropyl-1H-pyrazol-4-yl)phenyl)((trans-4-(4-methoxy-3-methylphenyl)cyclohexyl)methyl)carbamoyl)cyclohexyl (3-hydroxypropyl)carbamate]", "EC50": "≤ 250"}
{"smiles": "COc1ccc([C@H]2CC[C@H](CN(c3cccc(-c4cnn(C(C)C)c4)c3)C(=O)[C@H]3CC[C@H](OC(=O)NCCO)CC3)CC2)nc1C", "note": "[Compound 6.15, trans-4-((3-(1-Isopropyl-1H-pyrazol-4-yl)phenyl)((trans-4-(5-methoxy-6-methylpyridin-2-yl)cyclohexyl)methyl)carbamoyl)cyclohexyl (2-hydroxyethyl)carbamate]", "EC50": "≤ 250"}
{"smiles": "COc1ccc([C@H]2CC[C@H](CN(c3cccc(-c4cnn(C(C)C)c4)c3)C(=O)[C@H]3CC[C@H](OC(=O)NCCCO)CC3)CC2)nc1C", "note": "[Compound 6.16, trans-4-((3-(1-Isopropyl-1H-pyrazol-4-yl)phenyl)((trans-4-(5-methoxy-6-methylpyridin-2-yl)cyclohexyl)methyl)carbamoyl)cyclohexyl (3-hydroxypropyl)carbamate]", "EC50": "≤ 250"}
{"smiles": "COc1ccc([C@H]2CC[C@H](CN(c3cc(-c4cnn(C(C)C)c4)ccn3)C(=O)[C@H]3CC[C@H](OC(=O)NCCO)CC3)CC2)cc1C", "note": "[Compound 6.17, trans-4-((4-(1-Isopropyl-1H-pyrazol-4-yl)pyridin-2-yl)((trans-4-(4-methoxy-3-methylphenyl)cyclohexyl)methyl)carbamoyl)cyclohexyl (2-hydroxyethyl)carbamate]", "EC50": "≤ 250"}
{"smiles": "COc1ccc([C@H]2CC[C@H](CN(c3cccc(-c4cnn(C5CC5)c4)c3)C(=O)[C@H]3CC[C@H](OC(=O)NC4CN(C)C4)CC3)CC2)cc1C", "note": "[Compound 6.18, trans-4-((3-(1-Cyclopropyl-1H-pyrazol-4-yl)phenyl)((trans-4-(4-methoxy-3-methylphenyl)cyclohexyl)methyl)carbamoyl)cyclohexyl (1-methylazetidin-3-yl)carbamate]", "EC50": "≤ 250"}
{"smiles": "COc1ccc([C@H]2CC[C@H](CN(c3cccc(-c4cnn(C5CC5)c4)c3)C(=O)[C@H]3CC[C@H](OC(=O)NCCO)CC3)CC2)cc1C#N", "note": "[Compound 6.19, trans-4-(((trans-4-(3-Cyano-4-methoxyphenyl)cyclohexyl)methyl)(3-(1-cyclopropyl-1H-pyrazol-4-yl)phenyl)carbamoyl)cyclohexyl (2-hydroxyethyl)carbamate]", "EC50": "≤ 250"}
{"smiles": "COc1ccc([C@H]2CC[C@H](CN(c3cccc(-c4cnn(C(C)C)c4)c3)C(=O)[C@H]3CC[C@H](OC(=O)NCCO)CC3)CC2)cc1C#N", "note": "[Compound 6.20, trans-4-(((trans-4-(3-Cyano-4-methoxyphenyl)cyclohexyl)methyl)(3-(1-isopropyl-1H-pyrazol-4-yl)phenyl)carbamoyl)cyclohexyl (2-hydroxyethyl)carbamate]", "EC50": "≤ 250"}
{"smiles": "COc1ccc([C@H]2CC[C@H](CN(c3cc(-c4cnn(C5CC5)c4)ccn3)C(=O)[C@H]3CC[C@H](OC(=O)NCCO)CC3)CC2)cc1C#N", "note": "[Compound 6.21, trans-4-(((trans-4-(3-Cyano-4-methoxyphenyl)cyclohexyl)methyl)(4-(1-cyclopropyl-1H-pyrazol-4-yl)pyridin-2-yl)carbamoyl)cyclohexyl (2-hydroxyethyl)carbamate]", "EC50": "≤ 250"}
{"smiles": "COc1ccc([C@H]2CC[C@H](CN(c3cc(-c4cnn(C(C)C)c4)ccn3)C(=O)[C@H]3CC[C@H](OC(=O)NCCO)CC3)CC2)cc1C#N", "note": "[Compound 6.22, trans-4-(((trans-4-(3-Cyano-4-methoxyphenyl)cyclohexyl)methyl)(4-(1-isopropyl-1H-pyrazol-4-yl)pyridin-2-yl)carbamoyl)cyclohexyl (2-hydroxyethyl)carbamate]", "EC50": "≤ 250"}
{"smiles": "COc1ncc([C@H]2CC[C@H](CN(c3cccc(-c4cnn(C5CC5)c4)c3)C(=O)[C@H]3CC[C@H](OC(=O)NCCO)CC3)CC2)cc1Cl", "note": "[Compound 6.23, trans-4-(((trans-4-(5-Chloro-6-methoxypyridin-3-yl)cyclohexyl)methyl) (3-(1-cyclopropyl-1H-pyrazol-4-yl)phenyl)carbamoyl)cyclohexyl (2-hydroxyethyl)carbamate]", "EC50": "≤ 250"}
{"smiles": "COc1ccc([C@H]2CC[C@H](CN(c3cccc(-c4cnn(C5CC5)c4)c3)C(=O)[C@H]3CC[C@H](OC(=O)NC4COC4)CC3)CC2)cc1C", "note": "[Compound 6.24, trans-4-((3-(1-Cyclopropyl-1H-pyrazol-4-yl)phenyl)((trans-4-(4-methoxy-3-methylphenyl)cyclohexyl)methyl)carbamoyl)cyclohexyl oxetan-3-ylcarbamate]", "EC50": "≤ 250"}
{"smiles": "COc1ccc([C@H]2CC[C@H](CN(c3cccc(-c4cnn(C5CC5)c4)c3)C(=O)[C@H]3CC[C@H](OC(=O)N4CCN(C)CC4)CC3)CC2)cc1C", "note": "[Compound 6.25, trans-4-((3-(1-Cyclopropyl-1H-pyrazol-4-yl)phenyl)((trans-4-(4-methoxy-3-methylphenyl)cyclohexyl)methyl)carbamoyl)cyclohexyl 4-methylpiperazine-1-carboxylate]", "EC50": "≤ 250"}
{"smiles": "COCCN(C)C(=O)O[C@H]1CC[C@H](C(=O)N(C[C@H]2CC[C@H](c3ccc(OC)c(C)c3)CC2)c2cccc(-c3cnn(C4CC4)c3)c2)CC1", "note": "[Compound 6.26, trans-4-((3-(1-Cyclopropyl-1H-pyrazol-4-yl)phenyl)((trans-4-(4-methoxy-3-methylphenyl)cyclohexyl)methyl)carbamoyl)cyclohexyl (2-methoxyethyl) (methyl)carbamate]", "EC50": "≤ 250"}
{"smiles": "COc1ccc([C@H]2CC[C@H](CN(c3cccc(-c4cnn(C5CC5)c4)c3)C(=O)[C@H]3CC[C@H](OC(=O)N4CCSCC4)CC3)CC2)cc1C", "note": "[Compound 6.27, trans-4-((3-(1-Cyclopropyl-1H-pyrazol-4-yl)phenyl)((trans-4-(4-methoxy-3-methylphenyl)cyclohexyl)methyl)carbamoyl)cyclohexyl thiomorpholine-4-carboxylate]", "EC50": "≤ 250"}
{"smiles": "COc1ccc([C@H]2CC[C@H](CN(c3cccc(-c4cnn(C5CC5)c4)c3)C(=O)[C@H]3CC[C@H](OC(=O)NCCO)CC3)CC2)nc1C#N", "note": "[Compound 6.28, trans-4-(((trans-4-(6-Cyano-5-methoxypyridin-2-yl)cyclohexyl)methyl) (3-(1-cyclopropyl-1H-pyrazol-4-yl)phenyl)carbamoyl)cyclohexyl (2-hydroxyethyl)carbamate]", "EC50": "≤ 250"}
